From patent publication US6632789B1, “Methods for modulating T cell responses by manipulating intracellular signal transduction” (The United States of America as represented by the …, priority 1994, dated 2003)
Like-named read-outs stand apart in the source and are kept apart here.

What was measured:
[1] = tested on: CD28-mediated calcium flux in Jurkat cells; experiment: Anti-CD28 antibody-induced calcium flux in Jurkat cells; format: cell-based; conditions: Jurkat cells stimulated with anti-CD28 antibody; FIG. 4
Description: In this example, the effect of pharmacological inhibitors on calcium flux in Jurkat cells induced by anti-CD28 antibodies was examined. The pharmacological inhibitors studied were wortmannin, which inhibits the activity of PI3K, and herbimycin A, which inhibits the activity of protein tyrosine kinases. Jurkat cells were stimulated with an anti-CD28 antibody, either in medium alone or in the presence of wortmannin or herbimycin A, and the mean calcium concentration (nM) in the cells was measured over several minutes following stimulation.

[2] = tested on: CD28-induced IL-2 production; conditions: cited from earlier work
human T cells = experiment: IL-2 production by human T cells after 24 hours (ELISA of supernatants); format: cell-based; conditions: for IC50: T-cell
Description: In this example, the effect of an inhibitor of phosphatidylinositol 3-kinase on CD28-dependent production of interleukin-2 by T cells was examined. In a first series of experiments, the effect of T cell stimulation through CD28, in conjunction with stimulation through CD3, on IL-2 production was assessed in the absence of wortmannin. Highly purified human peripheral blood T cells were incubated for 24 hours with an immobilized anti-CD3 antibody (OKT3) alone or together with either an anti-CD28 antibody (9.3) or mitomycin C-treated CHO cells, either untransfected or transfected to express B7-1 or B7-2. Increasing numbers of CHO cells were tested (0.5×10^6 to 4×10^6). After culture for 24 hours, the culture supernatants were assayed for IL-2 production by ELISA by standard techniques.
In a next series of experiments, resting human T cells were stimulated with either: 1) immobilized OKT3+CHO-B7-1, 2) immobilized OKT3+CHO-B7-2, 3) immobilized OKT3+CHO-B7-1+B7-2, 4) PMA+CHO-B7-1 or 5) PMA+B7-2. Stimulation of T cells was performed in media alone or in media containing wortmannin at concentrations between 1 nM and 1 μM. Twenty-four hours following culture, the supernatants were assayed for IL-2 production by ELISA. […] Wortmannin-mediated inhibition of IL-2 production was dose dependent. The ID50 for inhibition of B7-2 -mediated stimulation was approximately 10 nM. The ID50 for inhibition of B7-1-mediated stimulation was between 10 and 100 nM.

CO[C@H]1[C@@H](OC)C[C@H](C)[C@@H](OC)C2=CC(=O)C=C(NC(=O)/C(C)=C/C=C\[C@H](OC)[C@@H](OC(N)=O)/C(C)=C/[C@@H]1C)C2=O [herbimycin A]
inhibition of CD28 antibody-induced calcium flux [1]: capable of inhibiting
inhibition of CD28-induced IL-2 production [2]: can inhibit

COC[C@H]1OC(=O)c2coc3c2[C@@]1(C)C1=C(C3=O)[C@@H]2CCC(=O)[C@@]2(C)C[C@H]1OC(C)=O [wortmannin]
IC50 (human T cells; resting human T cells, immobilized OKT3+CHO-B7-1, 24 hours, read-out: ID50 for inhibition of B7-1-mediated stimulation of IL-2 production): 10 to 100 nM
IC50 (human T cells; resting human T cells, immobilized OKT3+CHO-B7-2, 24 hours, read-out: ID50 for inhibition of B7-2-mediated stimulation of IL-2 production): ~10 nM
toxicity to the cells (human T cells; resting human T cells, at the ID50 doses (10 to 100 nM)): not generally toxic
inhibition of IL-2 production stimulated by PMA together with membrane-bound B7-1 or B7-2 (human T cells; resting human T cells, wortmannin at concentrations as high as 1 μM): not inhibited

OKT3: immobilized anti-CD3 antibody (OKT3)
IL-2 production (human T cells; purified human peripheral blood T cells, 24 hours, immobilized OKT3 alone, FIG. 6): did not produce IL-2
